The structures appear in SMILES notation. Like-named read-outs stand apart in the source and are kept apart here. Where only a bound is given, the exact number is not on record here.

For this experiment, the system named is carrageenan-induced paw edema. As to the kind of experiment: Carrageenan-induced paw edema (CPE) model. The note with it: for ED50: rat, oral gavage 2 h before carrageenan, 3 h after injection, mean of 5. The format is in vivo, rat. From the text: Carrageenans are a group of polysaccharides which can induce an acute inflammatory response in animals. Cardinal signs of inflammation including edema, hyperalgesia and erythema are developed in the injection site immediately following injection. The CPE model (Winter et al., Proc. Soc. Exp. Biol. Med. 111, 544-547, 1962) is a recognized model of inflammation and can be used to evaluate the antinflammatory effects of glucocorticoid receptor ligands.
To evaluate the anti-inflammatory effects of Compound (I), the Compound (I) is formulated in a vehicle comprising 0.5% carboxymethyl cellulose and 0.25% Tween 80 then administered orally via gavage to male Sprague-Dawley rats (180-200 g) (Harlan Industries, Indianapolis, Ind.). For comparison, prednisolone is administered orally in the same vehicle. Two hours later, 1% carrageenan in 50 μL of 0.9% pyrogen free saline is injected into the subplantar regions of the right hind paw. Rats are euthanized by CO2 at 3 hours after the carrageenan injection. Paws are removed then weighed using a microbalance. Paws are then immediately immersed into liquid nitrogen until frozen. Frozen paws are dissected by making several cuts on the paw surface then centrifuged to extract the exudates. Exudate levels of IL-1β, a cytokine generated during the inflammatory response, is then measured by ELISA (R&D Systems, Inc., Catalog No. RLB00) using standard techniques. Total paw protein is also measured using a protein assay kit (Pierce Biotechnology, Inc., Rockford, Ill., U.S.A., Catalog No. 1856210) and the absolute level of IL-1β is normalized to yield a concentration value of ng IL-1β/mg total protein.
In general terms: The carrageenan paw model is a standard test of acute inflammation.

A word on the ED50: it is the dose at which the effect has come halfway, by size or by number of responders. For the compound `C[C@]12C=CC(=O)C=C1CC[C@@H]1[C@@H]2[C@@H](O)C[C@@]2(C)[C@H]1CC[C@]2(O)C(=O)CO` [prednisolone, reference compound], under “rat CPE model, similar conditions”, the “potency relative to Compound (I) (fold less potent)” value is listed as “about 5 fold”. For the same compound, the median effective dose (ED50) by setting is: (read-out: ED50, inhibition of carrageenan induced paw weight gain) approximately 6.6 mg/kg; (read-out: ED50, reduction of paw exudate levels of IL-1β) less than 1 mg/kg.
